Reference: patent US20250206727A1, “HETEROCYCLIC SUBSTITUTED AROMATIC COMPOUND, PREPARATION METHOD THEREFOR, HERBICIDAL COMPOSITION AND APPLICATION” (QINGDAO KINGAGROOT CHEMICAL COMPOUND CO., LTD., priority 2022, published 2025)

Tests used:
Assay in all cases: Post-emergence test on weeds (greenhouse, spray at 2-3 leaf stage)
Type in all cases: in vivo
Design in all cases: key: Level 10: completely dead; Level 9: growth control rate greater than or equal to 90% and less than 100%; Level 8: growth control rate greater than or equal to 80% and less than 90%; Level 7: growth control rate greater than or equal to 70% and less than 80%; Level 6: growth control rate greater than or equal to 60% and less than 70%; Level 5: growth control rate greater than or equal to 50% and less than 60%; Level 4: growth control rate greater than or equal to 40% and less than 50%; Level 3: growth control rate greater than or equal to 30% and less than 40%; Level 2: growth control rate greater than or equal to 20% and less than 30%; Level 1: growth control rate less than 20%; Level 0: no effect
Settings in all cases: 60 g a.i./ha, 3 weeks after application
[1] = tested on: Setaria viridis
Excerpt: (§1) The activity level criteria for plant damage (i.e., growth control rate) are as follows: • Level 10: completely dead; • Level 9: growth control rate greater than or equal to 90% and less than 100%; • Level 8: growth control rate greater than or equal to 80% and less than 90%; • Level 7: growth control rate greater than or equal to 70% and less than 80%; • Level 6: growth control rate greater than or equal to 60% and less than 70%; • Level 5: growth control rate greater than or equal to 50% and less than 60%; • Level 4: growth control rate greater than or equal to 40% and less than 50%; • Level 3: growth control rate greater than or equal to 30% and less than 40%; • Level 2: growth control rate greater than or equal to 20% and less than 30%; • Level 1: growth control rate less than 20%; • Level 0: no effect.
(§2) The above growth control rates are fresh weight control rates.
(§3) Monocotyledonous and dicotyledonous weed seeds (Descurainia sophia, Capsella bursa-pastoris, Abutilon theophrasti, Galium spurium, Stellaria media, Lithospermum arvense, Rorippa indica, Alopecurus aequalis, Alopecurus japonicus, Eleusine indica, Beckmannia syzigachne, Sclerochloa dura, Erigeron canadensis, Phleum paniculatum, Veronica polita, Bromus japonicus, Aegilops tauschii, Phalaris arundinacea, Amaranthus retrofexus, Chenopodium, Commelina communis, Cichorium endivia, Convolvulus arvensis, Cirsium arvense, Solanum nigrum, Acalypha australis, Digitaria sanguinalis, Echinochloa crus-galli, Setaria viridis, Setaa pumila, Lepochloa chinensis, Monochona vaginalis, Sagitta trifolia, Schoenoplectiella juncoides, Cypenus rotundus, Cyperus ira, Cyperus difformis, Fimbristylis, Portulaca oleracea, Xanthium sibiricum, Ipomoea nil, Eschenbachia japonica, etc.) and major crop seeds (wheat, maize, paddy rice, soybean, cotton, oilseed rape, millet, sorghum, potato, sesame, castor plant, etc.) were placed in plastic pots filled with soil and then covered with 0.5-2 cm of soil to allow them to grow in a favorable greenhouse environment. Two weeks after sowing, the test plants were treated at the stage of 2-3 leaves. The test compounds of the present invention were individually dissolved with acetone, then added with Tween® 80, with 1.5 L/ha of methyl oleate emulsifiable concentrate as a synergist, diluted into solutions of certain concentrations using certain amount of water, and sprayed to the plants using a spray tower. After drug application, the experimental results on weeds were collected after 3 weeks of cultivation in a greenhouse. The compounds were applied at 500, 250, […], 15, and 7.5 g a.i./ha in triplicate, and the results were averaged.

[2] = tested on: Echinochloa crus-galli
Excerpt: as §1, §2, §3

[3] = tested on: Veronica polita
Excerpt: as §1, §2, §3

[4] = tested on: Digitaria sanguinalis
Excerpt: as §1, §2, §3

[5] = tested on: Abutilon theophrasti
Excerpt: as §1, §2, §3

[6] = tested on: Amaranthus retroflexus
Excerpt: as §1, §2, §3

CCC1(C(=O)OC)ON=C(c2cc(-c3ncc(Cl)cc3F)c(F)cc2Cl)O1 (stereo not drawn) [Compound 16]
10: activity level (fresh weight growth control rate), Setaria viridis [1] | activity level (fresh weight growth control rate), Echinochloa crus-galli [2] | activity level (fresh weight growth control rate), Veronica polita [3] | activity level (fresh weight growth control rate), Digitaria sanguinalis [4] | activity level (fresh weight growth control rate), Abutilon theophrasti [5] | activity level (fresh weight growth control rate), Amaranthus retroflexus [6]

CCC1(C(=O)OC)ON=C(c2cc(-c3ncc(C(F)(F)F)cc3Cl)c(F)cc2Cl)O1 (stereo not drawn) [Compound 17]
10: activity level (fresh weight growth control rate), Setaria viridis [1] | activity level (fresh weight growth control rate), Echinochloa crus-galli [2] | activity level (fresh weight growth control rate), Veronica polita [3] | activity level (fresh weight growth control rate), Digitaria sanguinalis [4] | activity level (fresh weight growth control rate), Abutilon theophrasti [5] | activity level (fresh weight growth control rate), Amaranthus retroflexus [6]

CCC1(C(=O)OC)ON=C(c2cc(-c3ncc(C(F)(F)F)cc3F)c(F)cc2Cl)O1 (stereo not drawn) [Compound 19]
10: activity level (fresh weight growth control rate), Setaria viridis [1] | activity level (fresh weight growth control rate), Echinochloa crus-galli [2] | activity level (fresh weight growth control rate), Veronica polita [3] | activity level (fresh weight growth control rate), Digitaria sanguinalis [4] | activity level (fresh weight growth control rate), Abutilon theophrasti [5] | activity level (fresh weight growth control rate), Amaranthus retroflexus [6]

CCCC1(C(=O)OC)ON=C(c2cc(-c3ncc(C(F)(F)F)cc3Cl)c(F)cc2Cl)O1 (stereo not drawn) [Compound 20]
10: activity level (fresh weight growth control rate), Setaria viridis [1] | activity level (fresh weight growth control rate), Echinochloa crus-galli [2] | activity level (fresh weight growth control rate), Veronica polita [3] | activity level (fresh weight growth control rate), Digitaria sanguinalis [4] | activity level (fresh weight growth control rate), Abutilon theophrasti [5] | activity level (fresh weight growth control rate), Amaranthus retroflexus [6]

COC(=O)C1(C2CC2)ON=C(c2cc(-c3ncc(Cl)cc3F)c(F)cc2Cl)O1 (stereo not drawn) [Compound 21]
10: activity level (fresh weight growth control rate), Setaria viridis [1] | activity level (fresh weight growth control rate), Echinochloa crus-galli [2] | activity level (fresh weight growth control rate), Veronica polita [3] | activity level (fresh weight growth control rate), Digitaria sanguinalis [4] | activity level (fresh weight growth control rate), Abutilon theophrasti [5] | activity level (fresh weight growth control rate), Amaranthus retroflexus [6]

CCOC(=O)C1ON=C(c2cc(-c3ccc(C(F)(F)F)cn3)c(F)cc2Cl)O1 (stereo not drawn) [Compound 23]
10: activity level (fresh weight growth control rate), Setaria viridis [1] | activity level (fresh weight growth control rate), Echinochloa crus-galli [2] | activity level (fresh weight growth control rate), Veronica polita [3] | activity level (fresh weight growth control rate), Digitaria sanguinalis [4] | activity level (fresh weight growth control rate), Abutilon theophrasti [5] | activity level (fresh weight growth control rate), Amaranthus retroflexus [6]

CCOC(=O)C1ON=C(c2cc(-c3ncc(C(F)(F)F)cc3Cl)c(F)cc2Br)O1 (stereo not drawn) [Compound 25]
10: activity level (fresh weight growth control rate), Setaria viridis [1] | activity level (fresh weight growth control rate), Echinochloa crus-galli [2] | activity level (fresh weight growth control rate), Veronica polita [3] | activity level (fresh weight growth control rate), Digitaria sanguinalis [4] | activity level (fresh weight growth control rate), Abutilon theophrasti [5] | activity level (fresh weight growth control rate), Amaranthus retroflexus [6]

CCOC(=O)C1ON=C(c2cc(-c3ncc(C(F)(F)F)cc3Cl)c(F)cc2Cl)O1 (stereo not drawn) [Compound 26]
10: activity level (fresh weight growth control rate), Setaria viridis [1] | activity level (fresh weight growth control rate), Echinochloa crus-galli [2] | activity level (fresh weight growth control rate), Veronica polita [3] | activity level (fresh weight growth control rate), Digitaria sanguinalis [4] | activity level (fresh weight growth control rate), Abutilon theophrasti [5] | activity level (fresh weight growth control rate), Amaranthus retroflexus [6]

CCOC(=O)C1(C)ON=C(c2cc(-c3ccc(C(F)(F)F)cn3)c(F)cc2Cl)O1 (stereo not drawn) [Compound 29]
10: activity level (fresh weight growth control rate), Setaria viridis [1] | activity level (fresh weight growth control rate), Echinochloa crus-galli [2] | activity level (fresh weight growth control rate), Veronica polita [3] | activity level (fresh weight growth control rate), Digitaria sanguinalis [4] | activity level (fresh weight growth control rate), Abutilon theophrasti [5] | activity level (fresh weight growth control rate), Amaranthus retroflexus [6]

CCOC(=O)C1(C)ON=C(c2cc(-c3ncc(C(F)(F)F)cc3C)c(F)cc2Cl)O1 (stereo not drawn) [Compound 30]
10: activity level (fresh weight growth control rate), Setaria viridis [1] | activity level (fresh weight growth control rate), Echinochloa crus-galli [2] | activity level (fresh weight growth control rate), Veronica polita [3] | activity level (fresh weight growth control rate), Digitaria sanguinalis [4] | activity level (fresh weight growth control rate), Abutilon theophrasti [5] | activity level (fresh weight growth control rate), Amaranthus retroflexus [6]

CCOC(=O)C1(C)ON=C(c2cc(-c3ncc(Cl)cc3F)c(F)cc2Cl)O1 (stereo not drawn) [Compound 31]
10: activity level (fresh weight growth control rate), Setaria viridis [1] | activity level (fresh weight growth control rate), Echinochloa crus-galli [2] | activity level (fresh weight growth control rate), Veronica polita [3] | activity level (fresh weight growth control rate), Digitaria sanguinalis [4] | activity level (fresh weight growth control rate), Abutilon theophrasti [5] | activity level (fresh weight growth control rate), Amaranthus retroflexus [6]

CCOC(=O)C1(C)ON=C(c2cc(-c3ncc(C)cc3F)c(F)cc2Cl)O1 (stereo not drawn) [Compound 32]
10: activity level (fresh weight growth control rate), Setaria viridis [1] | activity level (fresh weight growth control rate), Echinochloa crus-galli [2] | activity level (fresh weight growth control rate), Veronica polita [3] | activity level (fresh weight growth control rate), Digitaria sanguinalis [4] | activity level (fresh weight growth control rate), Abutilon theophrasti [5] | activity level (fresh weight growth control rate), Amaranthus retroflexus [6]

CCOC(=O)C1(C)ON=C(c2cc(-c3ncc(C(F)(F)F)cc3OC)c(F)cc2Cl)O1 (stereo not drawn) [Compound 33]
10: activity level (fresh weight growth control rate), Setaria viridis [1] | activity level (fresh weight growth control rate), Echinochloa crus-galli [2] | activity level (fresh weight growth control rate), Veronica polita [3] | activity level (fresh weight growth control rate), Digitaria sanguinalis [4] | activity level (fresh weight growth control rate), Abutilon theophrasti [5] | activity level (fresh weight growth control rate), Amaranthus retroflexus [6]
